The values below come from ChEMBL document CHEMBL1212941, “Eucapsitrione, an anti-Mycobacterium tuberculosis anthraquinone derivative from the cultured freshwater cyanobacterium Eucapsis sp” (J Nat Prod, 2010).

One test relates to Escherichia coli. Nature of the test: Antibacterial activity against Escherichia coli at 55 uM by broth microdilution method. In kind it is functional, organism-based. (In general: In broth dilution the organism is exposed to a series of concentrations in liquid medium.)
For test [1], the system named is Mycobacterium tuberculosis. The experiment in a line: Antimycobacterial activity against Mycobacterium tuberculosis H37Rv by low oxygen recovery assay. In kind it is functional.
The subject of the next test is Vero. Nature of the test: Cytotoxicity against african green monkey Vero cells. In kind it is cell-based. The conditions noted are these: Chlorocebus sabaeus.
Another test relates to Staphylococcus aureus. Nature of the test: Antibacterial activity against Staphylococcus aureus at 55 uM by broth microdilution method. In kind it is functional, organism-based.
A further test relates to Candida albicans. Nature of the test: Antifungal activity against Candida albicans at 55 uM by broth microdilution method. In kind it is functional, organism-based.
For test [2], the system named is Mycobacterium tuberculosis. The experiment in a line: Antimycobacterial activity against Mycobacterium tuberculosis H37Rv by microplate alamar blue assay. In kind it is functional. For orientation: Resazurin is reduced to fluorescent resorufin, in cell work by metabolically active cells.
The subject of test [3] is Mycolicibacterium smegmatis. Nature of the test: Antimycobacterial activity against Mycobacterium smegmatis at 55 uM by broth microdilution method. In kind it is functional, organism-based.

SMILES strings stand for the structures. ≈ marks a conversion by molar mass, not a printed value. Calls of active or inactive are those of the source. The rule behind the calls is not given here.

A word on the MIC: it is the least concentration at which growth counts as inhibited. The term IC50 denotes the concentration that gives 50% inhibition. For `O=c1c2cccc(O)c2c(=O)c2c(O)c3c(cc12)c(=O)c1c(O)cccc13` [EUCAPSITRIONE], the outcome (in the test on Escherichia coli; in the test on Staphylococcus aureus; with Candida albicans; in test [3]) was inactive. Moreover, the minimum inhibitory concentration (MIC) was 6.4 µM (≈ 2.29 µg/mL) in test [1] and 3.1 µM (≈ 1.11 µg/mL) in test [2]. In the test on Vero, the half-maximal inhibitory concentration (IC50) is more than 28 µM.
